For one series, the system named is strips of the ileum. The series can be described thus: 100% inhibition of peristaltic motility of ileum strips, Pharmacological Test 1(b). The settings on record: for IC100: Cavia porcellus, read-out: IC100 (dose causing 100% inhibition of the motility of the strip). Also on record: species or system guinea pig (female Hartley). The procedure: (b) Experiments on the inhibition of peristaltic motility of intestinal strips were carried out in the same manner as Experiment (a) except that guaiacol, creosol, cresol, phenol and xylenol, all of which are components of creosote, were respectively used in lieu of creosote.

The next series is described as follows: in vivo. The settings on record: rat, po.

Read-outs that look alike come from different tables or passages of the source.

In general, LD50 refers to the dose expected to kill half of the subjects tested. For the compound `Oc1ccccc1` [Phenol, phenol], in the series with strips of the ileum, the “antispasmodic activity (inhibition of intestinal motility), in words” value is “antispasmodic activity comparable to that of creosote” and the IC100 turned out to be 100 µg/mL. Further, the LD50 in the series “in vivo” is 530 mg/kg. Consider `Cc1ccccc1O` [o-Cresol], for which the LD50 in the series “in vivo” was 1350 mg/kg. In the case of `Cc1ccc(O)cc1` [p-Cresol], in “in vivo”, the LD50 stood at 1800 mg/kg. As for `COc1ccccc1O` [Guaiacol, guaiacol], the “antispasmodic activity (inhibition of intestinal motility), in words” value in the series on strips of the ileum was “antispasmodic activity comparable to that of creosote”. Also, the IC100 with strips of the ileum (strips of the ileum) is 100 µg/mL. Besides, in the series “in vivo”, the median lethal dose (LD50) came to 725 mg/kg. For the compound cresol, the “antispasmodic activity (inhibition of intestinal motility), in words” value with strips of the ileum is reported as “antispasmodic activity comparable to that of creosote”. In addition, in the series on strips of the ileum (strips of the ileum), the “IC100 (dose causing 100% inhibition of the motility of the strip)” value came out at 0.0001 g/mL. Turning to `COc1cc(C)ccc1O` [Creosol, creosol], the “antispasmodic activity (inhibition of intestinal motility), in words” value in the series on strips of the ileum is listed as “antispasmodic activity comparable to that of creosote”. Besides, the IC100 with strips of the ileum (strips of the ileum) was 100 µg/mL.

The compound `Cc1cccc(O)c1` [m-Cresol] yielded an LD50 in “in vivo” of 2020 mg/kg. On to xylenol, for which, in the series with strips of the ileum, the “antispasmodic activity (inhibition of intestinal motility), in words” value is “antispasmodic activity comparable to that of creosote”. Besides, the “IC100 (dose causing 100% inhibition of the motility of the strip)” value in the series on strips of the ileum (strips of the ileum) was determined as 0.0001 g/mL.

The values above are taken from patent publication US5112872A, “Antispasmodic agent” (Taiko Pharmaceutical Co., Ltd., priority 1989, dated 1992).
